target: T1, Neuropeptides B/W receptor type 1 (Homo sapiens, UniProt P48145); assay: Antagonist activity at human NPBWR1 assessed as inhibition of agonist-induced cAMP accumulation by cAMP assay; assay type: functional
T1 sequence (P48145 whole entry): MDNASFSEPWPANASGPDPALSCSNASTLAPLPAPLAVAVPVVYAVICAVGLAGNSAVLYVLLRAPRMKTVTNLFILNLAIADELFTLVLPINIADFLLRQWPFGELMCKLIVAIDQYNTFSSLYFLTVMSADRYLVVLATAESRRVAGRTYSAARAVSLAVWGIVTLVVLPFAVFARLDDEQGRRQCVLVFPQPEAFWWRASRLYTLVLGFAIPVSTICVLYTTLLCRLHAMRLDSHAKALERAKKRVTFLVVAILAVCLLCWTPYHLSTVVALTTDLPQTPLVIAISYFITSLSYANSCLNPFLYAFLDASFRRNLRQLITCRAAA

First: O=[N+]([O-])c1ccc2[nH]c(-c3ccccc3)nc2c1
Second: O=[N+]([O-])c1ccc2[nH]c(-c3ccc(-c4ccccc4)cc3)nc2c1
The IC50 of the first is 2-fold higher: 10 µM for the first, 4.88 µM for the second.

First: Cc1ccc(-c2nc3cc([N+](=O)[O-])ccc3[nH]2)cc1C
Second: Cc1cc(-c2nc3cc([N+](=O)[O-])ccc3[nH]2)ccc1Cl
The IC50 of the first is 1.7-fold lower: 1.38 µM for the first, 2.29 µM for the second.

First: O=[N+]([O-])c1ccc2[nH]c(-c3cccc(Cl)c3)nc2c1
Second: CC(=O)c1cccc(-c2nc3cc([N+](=O)[O-])ccc3[nH]2)c1
The IC50 of the first is lower: 9.98 µM for the first, greater than 31.6 µM for the second. The first is the more potent here.

`Cn1cc(-c2ccc(-c3nc4cc(C(F)(F)F)ccc4[nH]3)cc2)cn1` and `FC(F)(F)c1ccc2[nH]c(-c3ccc(-c4ccoc4)cc3)nc2c1` are within 1.5-fold of each other in IC50: 1.47 µM for the first, 1.19 µM for the second.

Compared with `FC(F)(F)c1ccc2[nH]c(-c3ccc(-c4nnc[nH]4)cc3)nc2c1`, `FC(F)(F)c1ccc2[nH]c(-c3ccc(-c4c[nH]nc4C(F)(F)F)cc3)nc2c1` is 2.6-fold lower in IC50: 3.08 µM for the first, 1.2 µM for the second. The second is the more potent here.

Compared with `O=[N+]([O-])c1ccc2nc(-c3ccc(Cl)cc3Cl)[nH]c2c1`, `O=[N+]([O-])c1ccc2nc(-c3ccc(Cl)c(Cl)c3)[nH]c2c1` is higher in IC50: 2.88 µM for the first, greater than 31.6 µM for the second.

Compared with `O=[N+]([O-])c1ccc2[nH]c(-c3ccc(C(F)(F)F)cc3)nc2c1`, `CC(C)(C)c1ccc(-c2nc3cc([N+](=O)[O-])ccc3[nH]2)cc1` is lower in IC50: greater than 31.6 µM for the first, 3.18 µM for the second. The second is the more potent here.

Going from `CC(=O)c1ccccc1-c1nc2cc([N+](=O)[O-])ccc2[nH]1` to `CC(=O)c1ccc(-c2nc3cc([N+](=O)[O-])ccc3[nH]2)cc1`, the IC50 falls from greater than 31.6 µM to 9.32 µM. The second is the more potent here.

Compared with `Cc1ccc(-c2nc3cc([N+](=O)[O-])ccc3[nH]2)cc1`, `Nc1ccc(-c2nc3cc([N+](=O)[O-])ccc3[nH]2)cc1` is 5.7-fold higher in IC50: 1.5 µM for the first, 8.48 µM for the second.

Going from `O=[N+]([O-])c1ccc2[nH]c(-c3cccc(N4CCCC4)c3)nc2c1` to `O=[N+]([O-])c1ccc2[nH]c(-c3ccc(N4CCCC4)cc3)nc2c1`, the IC50 falls from 6.01 µM to 1.81 µM (3.3-fold). The second is the more potent here.

Going from `CCc1ccc(-c2nc3cc([N+](=O)[O-])ccc3[nH]2)cc1` to `COc1ccc(-c2nc3cc([N+](=O)[O-])ccc3[nH]2)cc1`, the IC50 rises from 1.02 µM to 6.08 µM (6-fold). The first is the more potent here.

Going from `O=[N+]([O-])c1ccc2[nH]c(-c3c(Cl)cc(Cl)cc3I)nc2c1` to `O=[N+]([O-])c1ccc2[nH]c(-c3ccc(Cl)cc3Br)nc2c1`, the IC50 rises from 0.205 µM to 1.76 µM (8.6-fold). The first is the more potent here.

First: Cc1ccc(-c2nc3cc([N+](=O)[O-])ccc3[nH]2)c(C)c1
Second: Cc1cc(Cl)ccc1-c1nc2cc([N+](=O)[O-])ccc2[nH]1
The IC50 of the first is 1.6-fold lower: 1.54 µM for the first, 2.49 µM for the second.

First: FC(F)(F)c1ccc2[nH]c(-c3ccccc3)nc2c1
Second: NCc1ccc(-c2ccc(-c3nc4cc(C(F)(F)F)ccc4[nH]3)cc2)cc1
The IC50 of the first is 1.7-fold higher: 1.2 µM for the first, 0.72 µM for the second. The second is the more potent here.

Going from `NS(=O)(=O)c1ccc(-c2nc3cc([N+](=O)[O-])ccc3[nH]2)cc1` to `O=[N+]([O-])c1ccc2nc(-c3ccc(Cl)cc3)[nH]c2c1`, the IC50 falls from greater than 31.6 µM to 2.69 µM. The second is the more potent here.

Compared with `O=[N+]([O-])c1ccc2[nH]c(-c3ccc(Cl)c(Br)c3)nc2c1`, `O=[N+]([O-])c1ccc2nc(-c3ccccc3Cl)[nH]c2c1` is lower in IC50: greater than 31.6 µM for the first, 10.7 µM for the second.

In the case of `O=[N+]([O-])c1ccc2[nH]c(-c3ccccc3N3CCCC3)nc2c1`, the IC50 is reported as 6.77 µM.

Reference: ChEMBL document CHEMBL4699486, “Fragment-based lead discovery of a novel class of small molecule antagonists of neuropeptide B/W receptor subtype 1 (GPR7)” (Bioorg Med Chem Lett, 2020)
